Experimental data: PMC10288505, “Photoswitchable Calixarene Activators for Controlled Peptide Transport across Lipid Membranes” (Journal of the American Chemical Society, 2023)
Several values for one entry are separate records, joined by “and”; a condition that tells them apart may be missing. Equal values may be shown once. Read-outs that look alike come from different tables or passages of the source.

Experiments:
[1] = Carboxyfluorescein (CF) dye efflux assay, counterion-activated peptide transport; assay type: biochemical; details: for Activation of CF release in the presence of peptide R4: R4 5 µM, EYPC-LUV⊃CF 15 µM; for Activation of CF release in the presence of peptide R4 / EC50: 50 mM CF inside; for TE (transport efficiency), R6 transport / TE (transport efficiency), R8 transport: TE = Ymax × pEC50/f, pEC50 = −log EC50 (in mM), f = 20.6; for TE (transport efficiency), R6 transport: R6 4 μM; for TE (transport efficiency), R6 transport / TE (transport efficiency), R8 transport / Ymax (maximal CF release relative to Triton X-100 lysis), R6 transport / EC50 / Ymax (maximal CF release relative to Triton X-100 lysis), R8 transport: EYPC-LUV⊃CF 15 μM; for TE (transport efficiency), R8 transport: R8 4 μM; for Ymax (maximal CF release relative to Triton X-100 lysis), R6 transport / EC50 / Ymax (maximal CF release relative to Triton X-100 lysis), R8 transport: 5 mM phosphate buffer pH 7.3, Hill fit, triplicate; for EC50: fluorescence
Experimental: Dynamic light scattering (DLS) control experiments also confirmed liposome integrity under the experimental conditions employed in the different membrane transport assays, which ruled out potential membrane disruption interferences (Figure S34). Established dye efflux assays were performed using the carboxyfluorescein (CF) dye encapsulated at self-quenching concentrations in egg phosphatidylcholine large unilamellar vesicles (EYPC-LUV⊃CF).[26],[27],[29],[45] In these experiments, the fractional release of trapped CF (or fractional transport activity, Y), triggered by the addition of counterion activators and peptides, is monitored by time-resolved fluorescence spectroscopy and calibrated by the addition of Triton X-100 (Figure S35).
The studies were performed with both 1 and 2 in the E and Z configurations in the presence of fixed concentrations of liposomes and cationic peptides. […] Likewise, the addition of peptides alone or nonbinding anionic peptides in the presence of calixarene activators also results in unmodified fluorescence signal, confirming that the formation of the calixarene–peptide complex is critical to activate the transport process. […] This approach retrieves the Ymax (i.e., maximal CF release relative to liposome lysis after the addition of Triton X-100) and EC50 (i.e., the effective counterion activator concentration required to reach Ymax/2) as the relevant parameters to measure the efficiency of the counterion activators.
10 mg of L-α-phosphatidylcholine (95%) (Egg, Chicken) were dissolved in 1 ml of chloroform. The solution was evaporated under a nitrogen stream, under rotation, to form a thin lipid film in the bottom of the flask. This film was left to dry under vacuum for a minimum of 1h. After drying the maximum of the solvent from the solution, 1 ml of the solution to incorporate (CF 50 mM in 5 mM phosphate buffer for EYPC-LUV⊃CF and only phosphate buffer 5 mM pH 7.4, for the LUVs with no encapsulation) was added to the thin film and the lipids were left to resuspend under agitation, in a 40 °C bath, for 30 min. The resuspended lipid mixture was then submitted to 10 freeze-thaw cycles and extruded 23 times through a 100 nm membrane, to obtain uniform, monodisperse liposomes with high encapsulation of the added solution. The liposomes were then separated from the molecules that were not encapsulated by size-exclusion chromatography, with Sephadex G25 (V = 37 ml), obtaining two fractions, one with high turbidity and a clear one, corresponding to the encapsulated and free sensor, respectively. The samples were then analyzed by Dynamic Light Scattering (DLS) to determine the average size of the liposomes in solution and their size distribution.
All assays were done up to 48h after the preparation of the vesicles to ensure their integrity and majority of CF still encapsulated.
EC50 and Ymax calculation. For the measurement of 1 and 2’s effectiveness as a counterion activators of polyarginine transport, dye efflux assays were executed at several counterion activator concentrations, while maintaining the concentration of peptide and LUV fixed as indicated in the respective figures.
For the dye efflux assays, CF emission was followed throughout the assay, with consecutive additions of the elements of the solution – the initial solution presented only the vesicles at a fixed concentration. A counterion activator aliquot is then added according to the concentration to be tested and the emission is measured to confirm that CF remains encapsulated; some counterion activators can act as detergents at sufficient concentrations. Finally, the peptide in question is added and fluorescence spectra are measured […]
until the emission stabilizes and a maximum of release is reached. If the counterion activator has the capacity to activate the transport, CF should be co-transported to the exterior of the liposome with the influx of the counterion-peptide complex. Finally, Triton X-100 is added to the solution to dissolve the […]

[2] = Fluorescence titration of lucigenin dye with calixarene host (1:1 binding model); details: association constant, 1:1 host:guest model, 5 mM phosphate buffer pH 7.3, mean ± SD of triplicate
Description: The binding affinity of the anionic calixarene activators toward cationic peptides was investigated using a small library of highly hydrophilic oligoarginines, from 3 to 8 residues. These peptides are not able to spontaneously transverse zwitterionic artificial membranes in vesicle assays, which allows the accurate evaluation of the calixarenes 1 and 2 as counterion activators without interferences from the transport of the peptide alone.[43]−[45] First, the formation of host–guest complexes between 1/2 and the selected peptides was verified by indicator displacement assays using lucigenin (LCG) as the fluorescent indicator.[46] As previously reported for other sulfonatocalixarene derivatives,[46] the formation of host–guest binding pairs between calixarenes 1/2 in the E- and Z-forms and LCG results in significant static fluorescence quenching (see Figure 2A and Figures S26 and S27). Quantitative analysis of the fluorescence titration data using a 1:1 host:guest binding model allows the determination of the respective binding constants (K) reported in Table 1. As can be observed, both 1/2 display high affinity for the LCG dye, on the 10^7 M^–1 range, which seems to be independent of the nature and conformation of the azobenzene arm. […] The host:LCG binding pairs were then employed in the above-mentioned indicator displacement assays to investigate the binding affinity of oligoarginines toward 1 and 2 (see Figure 2B and Figures S29–S33).
Figure 2 (A) Fluorescence titration of the lucigenin dye (LCG, 1.5 μM) with increasing concentrations of E-2 in water (5 mM phosphate buffer, pH 7.3). (B) Indicator displacement titration of hexaarginine (R6) using E-2:LCG as the reporter pair (5 mM phosphate buffer, pH 7.3). LCG and E-2 concentrations were fixed at 4 and 4.3 μM, respectively. […]
The binding affinities of the counterion activators and peptide complexes were analyzed by indicator displacement assays. […] Firstly, the affinity for LCG was calculated for each of the activators, by titrations followed by fluorescence spectroscopy leading to almost full quenching of the emission. […]
Figure S26 - Fluorescence titration of the lucigenin dye with increasing concentrations of A) E-1 and B) Z–1 in water (5 mM phosphate buffer pH 7.3). […]
Figure S27 - Fluorescence titrations of the lucigenin dye (LCG, 0.2 µM, except for the first E-2 titration were [LCG] = 1.5 µM ) with increasing concentrations of (A) E-2 and (B) Z-2 in water (5 mM phosphate buffer pH 7.3). […]
Figure S28 - Fluorescence titrations of the lucigenin dye (LCG, 0.2 µM) with increasing concentrations of SC4 in water (5 mM phosphate buffer pH 7.3). […]

[3] = peptide R6 4 μM, read-out: EC50 (effective counterion activator concentration to reach Ymax/2), R6 transport
[4] = peptide R8 4 μM, read-out: EC50 (effective counterion activator concentration to reach Ymax/2), R8 transport

Compound | Activation of CF release in the presence of peptide R4 [1] | TE (transport efficiency), R6 transport [1] | TE (transport efficiency), R8 transport [1] | Ymax (maximal CF release relative to Triton X-100 lysis), R6 transport ([1]; peptide R6 4 μM) | EC50 [1, 3] [nM] | Ymax (maximal CF release relative to Triton X-100 lysis), R8 transport ([1]; peptide R8 4 μM) [%] | EC50 [1, 4] [nM] | Apparent affinity constant K for LCG [2]
O=S(=O)([O-])c1cc2c(O)c(c1)Cc1cc(S(=O)(=O)[O-])cc(c1O)Cc1cc(S(=O)(=O)[O-])cc(c1OCCCCCCOc1ccc(/N=N\c3ccccc3)cc1)Cc1cc(S(=O)(=O)[O-])cc(c1O)C2.[Li+].[Li+].[Li+].[Li+] [Z-1] | no activation was observed | 10.8 ± 0.8 | 13.3 ± 0.4 | 63% and 63 ± 5% | 291 ± 32 | 69 ± 2 | 99 ± 3 | (2.3 ± 0.4) × 10^7 M^–1
CCCCc1ccc(/N=N/c2ccc(OCCCOc3c4cc(S(=O)(=O)[O-])cc3Cc3cc(S(=O)(=O)[O-])cc(c3O)Cc3cc(S(=O)(=O)[O-])cc(c3O)Cc3cc(S(=O)(=O)[O-])cc(c3O)C4)cc2)cc1.[Li+].[Li+].[Li+].[Li+] [E-2] |  | 20.2 ± 0.2 | 22.2 ± 0.3 | 96% and 96 ± 1% | 45 ± 2 | 93 ± 2 | 11 ± 1 | (2.6 ± 0.7) × 10^7 M^–1
CCCCc1ccc(/N=N\c2ccc(OCCCOc3c4cc(S(=O)(=O)[O-])cc3Cc3cc(S(=O)(=O)[O-])cc(c3O)Cc3cc(S(=O)(=O)[O-])cc(c3O)Cc3cc(S(=O)(=O)[O-])cc(c3O)C4)cc2)cc1.[Li+].[Li+].[Li+].[Li+] [Z-2] | no activation was observed | 16.6 ± 0.3 | 20.8 ± 0.4 | 94% and 94 ± 2% | 227 ± 17 | 94 ± 2 | 30 ± 4 | (3.4 ± 0.8) × 10^7 M^–1
O=S(=O)([O-])c1cc2c(O)c(c1)Cc1cc(S(=O)(=O)[O-])cc(c1O)Cc1cc(S(=O)(=O)[O-])cc(c1OCCCCCCOc1ccc(/N=N/c3ccccc3)cc1)Cc1cc(S(=O)(=O)[O-])cc(c1O)C2.[Li+].[Li+].[Li+].[Li+] [E-1] |  | 19.4 ± 0.2 | 20.3 ± 0.4 | 96% and 96 ± 1% | 72 ± 5 | 91 ± 2 | 24 ± 2 | (2.5 ± 0.7) × 10^7 M^–1
